Values of other authors as cited in patent US20210154122A1, “TOPICAL COMPOSITION” (OTSUKA PHARMACEUTICAL CO., LTD., priority 2017, published 2021).

System: keratocytes
Conditions: keratocytes treated with uridine; disclosed in Patent Document 5 (JP 2009-517380 A)

For `O=c1ccn([C@@H]2O[C@H](CO)[C@@H](O)[C@H]2O)c(=O)[nH]1` [uridine], the hyaluronic acid production is listed as “promoted”.
